Assay [1] deals with Carbonic anhydrase 1 (Homo sapiens, UniProt P00915).
Description: Inhibitory activity against human carbonic anhydrase I (CA1)
Assay [2] concerns the target T1, Carbonic anhydrase 4 (Bos taurus, UniProt Q95323).
T1 sequence (Q95323 whole entry): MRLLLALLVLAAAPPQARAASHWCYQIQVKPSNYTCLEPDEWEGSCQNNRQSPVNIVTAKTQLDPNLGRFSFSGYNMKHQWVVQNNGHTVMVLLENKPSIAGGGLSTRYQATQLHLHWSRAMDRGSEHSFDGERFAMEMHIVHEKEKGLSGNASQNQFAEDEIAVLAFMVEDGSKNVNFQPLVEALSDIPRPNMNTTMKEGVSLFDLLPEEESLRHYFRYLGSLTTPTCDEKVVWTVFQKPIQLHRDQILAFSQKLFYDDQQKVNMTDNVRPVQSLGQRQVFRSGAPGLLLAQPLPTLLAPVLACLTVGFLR
Description: Inhibitory activity against bovine carbonic anhydrase IV (CA4), isolated from bovine lung microsomes

Sequence of Carbonic anhydrase 1 (P00915 whole entry): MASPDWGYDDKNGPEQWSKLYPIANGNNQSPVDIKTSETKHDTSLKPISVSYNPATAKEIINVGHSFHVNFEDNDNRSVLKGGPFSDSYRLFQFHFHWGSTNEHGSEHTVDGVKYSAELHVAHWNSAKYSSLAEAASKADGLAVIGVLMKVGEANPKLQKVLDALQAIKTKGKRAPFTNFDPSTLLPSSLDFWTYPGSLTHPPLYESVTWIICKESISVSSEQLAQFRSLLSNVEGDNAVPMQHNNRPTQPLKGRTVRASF

Take `CCc1cc(-c2ccccc2)cc(CC)[n+]1CC(=O)Oc1ccc2nc(S(N)(=O)=O)sc2c1`: the Ki in assay [1] came out at 11 nM; in assay [2] it was 27 nM.

`CC(C)c1cc(-c2ccccc2)cc(C(C)C)[n+]1CC(=O)NCCC(=O)Nc1nnc(S(N)(=O)=O)s1` came in with a Ki in assay [2] of 16 nM.

With `CCc1cc(-c2ccccc2)cc(CC)[n+]1CC(=O)Nc1nccc(Nc2ccc(S(N)(=O)=O)cc2)n1`, the Ki in assay [1] was 45 nM; in assay [2] it was 58 nM.

On to `CCc1cc(-c2ccccc2)cc(CC)[n+]1CC(=O)Nc1ccc(S(N)(=O)=O)cc1F`, for which the Ki in assay [1] was 750 nM; in assay [2], 39 nM.

`CC(C)c1cc(-c2ccccc2)cc(C(C)C)[n+]1CC(=O)Nc1ccccc1S(N)(=O)=O`: the Ki in assay [1] turned out to be 30500 nM; in assay [2], 350 nM.

For the molecule `Cc1cc(-c2ccccc2)cc(C)[n+]1CC(=O)OCCOc1ccc2nc(S(N)(=O)=O)sc2c1`, the figures for the Ki in assay [1] and in assay [2] were 9 nM and 16 nM, respectively.

Take `Cc1cc(-c2ccccc2)cc(C)[n+]1CC(=O)Nc1ccccc1S(N)(=O)=O`: the Ki worked out at 25300 nM in assay [1] and 290 nM in assay [2].

With `Cc1cc(C)[n+](CC(=O)Nc2ccc(S(=O)(=O)Nc3nnc(S(N)(=O)=O)s3)cc2)c(C)c1`, the Ki in assay [1] came out at 15 nM; in assay [2], 12 nM.

In assay [1], `Cc1cc(C)[n+](CC(=O)Nc2ccc(S(=O)(=O)/N=c3/sc(S(N)(=O)=O)nn3C)cc2)c(C)c1` came in with a Ki of 15 nM.

On to `CC(C)c1cc(-c2ccccc2)cc(C(C)C)[n+]1CC(=O)Nc1ccc(S(N)(=O)=O)cc1F`, for which the Ki in assay [1] worked out at 750 nM; in assay [2] it was 39 nM.

Take `CCc1cc(-c2ccccc2)cc(CC)[n+]1CC(=O)NCCc1ccc(S(N)(=O)=O)cc1`: the Ki in assay [1] came out at 750 nM; in assay [2], 61 nM.

Molecule `CC(C)c1cc(-c2ccccc2)cc(C(C)C)[n+]1CC(=O)Nc1nnc(S(N)(=O)=O)s1` displayed a Ki in assay [2] of 36 nM. This lies in the double-digit nanomolar range.

Regarding `Cc1cc(C)[n+](CC(=O)Nc2ccc(S(N)(=O)=O)cc2Cl)c(C)c1`, the Ki in assay [1] turned out to be 680 nM; in assay [2], 70 nM.

Regarding `CC(C)c1cc(-c2ccccc2)cc(C(C)C)[n+]1CC(=O)Nc1cccc(S(N)(=O)=O)c1`, the Ki stood at 23100 nM in assay [1] and 345 nM in assay [2].

Take `CC(C)c1cc(-c2ccccc2)cc(C(C)C)[n+]1CC(=O)Nc1ccc(S(N)(=O)=O)cc1I`: the Ki in assay [1] is 630 nM; in assay [2] it was 75 nM.

In the case of `Cc1cc(C)[n+](CC(=O)Nc2ccc(S(=O)(=O)Nc3cccc(S(N)(=O)=O)c3)cc2)c(C)c1`, the figures for the Ki in assay [1] and in assay [2] were 61 nM and 86 nM, respectively.

`CCc1cc(-c2ccccc2)cc(CC)[n+]1CC(=O)NCCC(=O)Nc1nnc(S(N)(=O)=O)s1` registered a Ki in assay [2] of 19 nM.

Consider `CCc1cc(-c2ccccc2)cc(CC)[n+]1CC(=O)Nc1ccccc1S(N)(=O)=O`, for which the Ki was 27500 nM in assay [1] and 335 nM in assay [2].

As for `Cc1cc(-c2ccccc2)cc(C)[n+]1CC(=O)NCc1ccc(S(N)(=O)=O)cc1`, the results for the Ki in assay [1] and in assay [2] were 1250 nM and 50 nM, respectively.

Turning to `Cc1cc(-c2ccccc2)cc(C)[n+]1CC(=O)Oc1ccc2nc(S(N)(=O)=O)sc2c1`, the values for the Ki in assay [1] and in assay [2] were 11 nM and 17 nM, respectively.

Take `Cc1cc(C)[n+](CC(=O)NCCc2ccc(S(N)(=O)=O)cc2)c(C)c1`: the Ki in assay [1] was 805 nM; in assay [2] it was 71 nM.

In the case of `CCc1cc(-c2ccccc2)cc(CC)[n+]1CC(=O)OCCOc1ccc2nc(S(N)(=O)=O)sc2c1`, the values for the Ki in assay [1] and in assay [2] were 10 nM and 25 nM, respectively.

Regarding `CCc1cc(-c2ccccc2)cc(CC)[n+]1CC(=O)OCCc1ccc(S(N)(=O)=O)cc1`, the Ki in assay [1] is 1500 nM; in assay [2] it was 84 nM.

On to `Cn1nc(S(N)(=O)=O)s/c1=N/S(=O)(=O)c1ccc(N)cc1`, for which the values for the Ki in assay [1] and in assay [2] were 1 nM and 0.8 nM, respectively.

As for `CC(C)c1cc(-c2ccccc2)cc(C(C)C)[n+]1CC(=O)NNc1ccc(S(N)(=O)=O)cc1`, the Ki was found to be 34000 nM in assay [1] and 360 nM in assay [2].

With `CC(C)c1cc(-c2ccccc2)cc(C(C)C)[n+]1CC(=O)Nc1nccc(Nc2ccc(S(N)(=O)=O)cc2)n1`, the Ki came to 47 nM in assay [1] and 62 nM in assay [2].

Turning to `Cc1cc(C)[n+](CC(=O)Nc2ccc(S(=O)(=O)Nc3ccc(S(N)(=O)=O)cc3)cc2)c(C)c1`, the Ki in assay [1] amounted to 55 nM; in assay [2], 78 nM.

In the case of `Cc1cc(C)[n+](CC(=O)Nc2nnc(S(N)(=O)=O)s2)c(C)c1`, the figures for the Ki in assay [1] and in assay [2] were 300 nM and 50 nM, respectively.

For the molecule `CC(C)c1cc(-c2ccccc2)cc(C(C)C)[n+]1CC(=O)Nc1ccc(S(N)(=O)=O)cc1`, the Ki stood at 15000 nM in assay [1] and 180 nM in assay [2].

For the molecule `CC(C)c1cc(-c2ccccc2)cc(C(C)C)[n+]1CC(=O)OCCc1ccc(S(N)(=O)=O)cc1`, the Ki in assay [1] was found to be 1650 nM; in assay [2], 115 nM.

Consider `Cc1cc(-c2ccccc2)cc(C)[n+]1CC(=O)Nc1ccc(S(=O)(=O)Nc2ccc(S(N)(=O)=O)cc2)cc1`, for which the Ki in assay [1] came out at 41 nM; in assay [2] it was 54 nM.

Turning to `Cc1cc(-c2ccccc2)cc(C)[n+]1CC(=O)Nc1ccc(S(=O)(=O)Nc2nnc(S(N)(=O)=O)s2)cc1`, the Ki in assay [1] turned out to be 10 nM; in assay [2], 9 nM.

For `CCc1cc(-c2ccccc2)cc(CC)[n+]1CC(=O)NCc1ccc(S(N)(=O)=O)cc1`, the Ki in assay [1] turned out to be 1400 nM; in assay [2] it was 67 nM.

Turning to `Cc1cc(C)[n+](CC(=O)/N=c2/sc(S(N)(=O)=O)nn2C)c(C)c1`, the results for the Ki in assay [1] and in assay [2] were 330 nM and 60 nM, respectively.

For `Cc1cc(-c2ccccc2)cc(C)[n+]1CC(=O)Nc1ccc(S(=O)(=O)Nc2cccc(S(N)(=O)=O)c2)cc1`, the Ki was 38 nM in assay [1] and 55 nM in assay [2].

Turning to `CCc1cc(-c2ccccc2)cc(CC)[n+]1CC(=O)Nc1cccc(S(N)(=O)=O)c1`, the Ki in assay [1] was determined as 21800 nM; in assay [2] it was 310 nM.

Regarding `CC(C)c1cc(-c2ccccc2)cc(C(C)C)[n+]1CC(=O)Nc1ccc(S(N)(=O)=O)cc1Br`, the Ki in assay [1] stood at 645 nM; in assay [2], 70 nM.

Consider `Cc1cc(C)[n+](CC(=O)Nc2c(S(N)(=O)=O)cc(S(N)(=O)=O)c(Cl)c2Cl)c(C)c1`, for which the figures for the Ki in assay [1] and in assay [2] were 550 nM and 67 nM, respectively.

Take `Cc1cc(C)[n+](CC(=O)Nc2nccc(Nc3ccc(S(N)(=O)=O)cc3)n2)c(C)c1`: the Ki in assay [1] was found to be 52 nM; in assay [2] it was 69 nM.

For the molecule `Cc1cc(-c2ccccc2)cc(C)[n+]1CC(=O)Nc1ccc(S(N)(=O)=O)cc1I`, the figures for the Ki in assay [1] and in assay [2] were 610 nM and 59 nM, respectively.

With `CC(C)c1cc(-c2ccccc2)cc(C(C)C)[n+]1CC(=O)Nc1ccc2nc(S(N)(=O)=O)sc2c1`, the Ki was 13 nM in assay [1] and 38 nM in assay [2].

Take `CCc1cc(-c2ccccc2)cc(CC)[n+]1CC(=O)/N=c1/sc(S(N)(=O)=O)nn1C`: the Ki in assay [1] was determined as 300 nM; in assay [2] it was 25 nM.

With `Cc1cc(C)[n+](CC(=O)OCCc2ccc(S(N)(=O)=O)cc2)c(C)c1`, the results for the Ki in assay [1] and in assay [2] were 1700 nM and 130 nM, respectively.

Take `CCc1cc(-c2ccccc2)cc(CC)[n+]1CC(=O)Nc1ccc(S(N)(=O)=O)cc1Cl`: the Ki came to 610 nM in assay [1] and 46 nM in assay [2].

As for `Cc1cc(-c2ccccc2)cc(C)[n+]1CC(=O)NCCC(=O)Nc1nnc(S(N)(=O)=O)s1`, in assay [2], the Ki was 15 nM. This lies in the double-digit nanomolar range.

For the molecule `Nc1cc(C(F)(F)F)c(S(N)(=O)=O)cc1S(N)(=O)=O` [2,4-DISULFAMYLTRIFLUOROMETHYLANILINE], the Ki in assay [2] worked out at 140 nM.

The Ki is a measure of affinity in units of concentration, obtained from inhibition or displacement. Read a high Ki as weaker binding.

The values are drawn from ChEMBL document CHEMBL1133669 (J Med Chem, 2000).
